From patent publication US20190307726A1, “PHARMACEUTICAL FORMULATIONS” (Molecular Defenses Corporation, priority 2015, published 2019)

Key:
wild type DHB4 E. coli = conditions: cited from earlier work
gshA- DHB4 E. coli = conditions: cited from earlier work
Gor- DHB4 E. coli = conditions: cited from earlier work
[1] = 30 μM compound, 0.5 mM GSH, 0.5 mM H2O2, NADPH consumption; cited from earlier work
E. coli TrxR = E. coli TrxR (Escherichia coli, UniProt P0A9P4); conditions: cited from earlier work
HEK 293T cells = conditions: 24 h incubation, XTT; cited from earlier work
E. coli Trx = E. coli Trx (Escherichia coli, UniProt P0AA25); assay: Oxidation of reduced E. coli Trx-(SH)2, fluorescence spectroscopy; assay type: biochemical
Description: Oxidation E. coli Trx-(SH)2 by ebselen derivatives. Oxidant property of benzisoselenazol-3(2H)-one derivatives on reduced E. coli Trx-(SH)2 were studied by fluorescence spectroscopy.

[2] = system: MDR Mycobacterium tuberculosis; assay: Sensitivity of Mycobacterium tuberculosis to ebselen, radiometric BACTEC 460 system; assay type: cell-based; conditions: medium with 5 g/l albumin; dependent upon albumin saturation
Staphylococcus aureus = conditions: cited from earlier work
recombinant rat TrxR = target: T1, recombinant rat TrxR (Rattus norvegicus, UniProt O89049); conditions: cited from earlier work
T1 sequence (O89049 1-499): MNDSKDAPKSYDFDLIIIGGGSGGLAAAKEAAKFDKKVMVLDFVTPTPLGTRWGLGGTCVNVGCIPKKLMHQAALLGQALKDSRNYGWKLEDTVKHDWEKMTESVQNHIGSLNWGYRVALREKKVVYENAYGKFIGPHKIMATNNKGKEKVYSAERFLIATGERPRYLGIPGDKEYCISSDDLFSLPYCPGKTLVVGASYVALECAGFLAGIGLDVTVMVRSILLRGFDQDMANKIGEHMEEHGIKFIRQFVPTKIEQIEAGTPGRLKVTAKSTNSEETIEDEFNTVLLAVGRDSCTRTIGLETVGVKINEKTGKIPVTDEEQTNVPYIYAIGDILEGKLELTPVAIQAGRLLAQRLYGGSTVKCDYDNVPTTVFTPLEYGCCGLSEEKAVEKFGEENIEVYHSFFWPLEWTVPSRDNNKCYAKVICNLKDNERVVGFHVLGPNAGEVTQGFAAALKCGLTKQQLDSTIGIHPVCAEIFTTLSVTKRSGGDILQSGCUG

E. coli Trx, sequence (P0AA25 whole entry): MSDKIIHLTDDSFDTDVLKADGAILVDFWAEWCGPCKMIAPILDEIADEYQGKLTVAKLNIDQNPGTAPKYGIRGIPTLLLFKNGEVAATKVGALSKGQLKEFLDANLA
E. coli TrxR, sequence (P0A9P4 2-321): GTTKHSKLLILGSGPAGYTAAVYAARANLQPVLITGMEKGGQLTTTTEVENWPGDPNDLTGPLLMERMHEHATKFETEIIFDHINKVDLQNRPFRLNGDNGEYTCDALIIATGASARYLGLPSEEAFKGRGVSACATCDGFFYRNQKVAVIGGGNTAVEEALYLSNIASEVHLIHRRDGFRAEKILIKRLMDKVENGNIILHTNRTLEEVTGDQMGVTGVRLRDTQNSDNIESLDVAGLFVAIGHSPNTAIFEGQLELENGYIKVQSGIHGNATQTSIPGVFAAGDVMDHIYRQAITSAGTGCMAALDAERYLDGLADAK

| SMILES | MIC for wild type DHB4 E. coli (wild type DHB4 E. coli) | MIC for gshA- DHB4 E. coli (gshA- DHB4 E. coli) | MIC for Gor- DHB4 E. coli (Gor- DHB4 E. coli) | also measured |
| --- | --- | --- | --- | --- |
| Cc1cc(Cl)ccc1-n1[se]c2ccccc2c1=O [EbSe 8] | 47 µM | 13 µM | 24 µM |  |
| O=c1c2ccccc2[se]n1CCn1[se]c2ccccc2c1=O [EbSe 14] | 23 µM | 23 µM | 19 µM | Relative GPx activity [1]: No activity |
| O=c1c2ccccc2[se]n1-c1ccc(Cl)cn1 [EbSe 11] | No Inh. | No Inh. | No Inh. | IC50 (E. coli TrxR; read-out: IC50 for E. coli TrxR, 100 nM TrxR, 2 μM Trx, 240 μM NADPH, 1 mM DTNB): > 40 µM; Ki (E. coli TrxR; read-out: Ki for E. coli TrxR, Dixon plot, 6 nM TrxR, Trx 1, 2 or 4 μM): 0.3 µM; Relative GPx activity [1]: 0.87; IC50 (HEK 293T cells): > 160 µM |
| O=c1c2ccccc2[se]n1CCCCCCn1[se]c2ccccc2c1=O [EbSe 16] | 20 µM | 20 µM | 35 µM |  |
| O=C(Nc1ccccc1)c1ccccc1[Se][Se]c1ccccc1C(=O)Nc1ccccc1 [ebselen diselenide] |  |  |  | second-order rate constant, reduction by reduced E. coli Trx (E. coli Trx): 1700 M⁻¹ s⁻¹ |
| O=c1c2ccccc2[se]n1-c1ccncc1 [EbSe 13] | 45 µM | 21 µM | 24 µM |  |
| O=c1c2ccccc2[se]n1-c1ncccc1[N+](=O)[O-] [EbSe 12] | No Inh. | No Inh. | No Inh. | Relative GPx activity [1]: 0.93; IC50 (HEK 293T cells): 80 µM |
| CCOC(=O)c1cccnc1[Se]Nc1ccc(Cl)cn1 [compound 2] | No Inh. | No Inh. | No Inh. |  |
| O=C(O)c1ccccc1-n1[se]c2ccccc2c1=O [EbSe 9] | 49 µM | 24 µM | 31 µM |  |
| O=c1c2ccccc2[se]n1-c1ccc(Cl)cc1 [EbSe 7] | 34 µM | 20 µM | 23 µM |  |
| O=c1c2ccccc2[se]n1-c1ccccc1 [EbSe 6, 2-phenyl-1,2-benzisoselenazol-3(2H)-one] | 40 µM | 26 µM | 15 µM | second-order rate constant, reduction by reduced E. coli Trx (E. coli Trx): 2e+07 M⁻¹ s⁻¹; MIC, Mycobacterium tuberculosis [2]: lower than 20 mg/I; difference in sensitivity, Staphyloccus aureus versus E. coli (Staphylococcus aureus): 100 fold; concentration inhibiting growth of methicillin resistant Staphylococcus aureus (Staphylococcus aureus; methicillin resistant Staphylococcus aureus): 0.20 μg per ml; concentration inhibiting growth of Staphylococcus aureus 209P (Staphylococcus aureus; strain 209P): 0.20 µg/mL |
| CC(C)(C)n1[se]c2ccccc2c1=O [EbSe 4] |  |  |  | inhibition of mammalian TrxR (in words) (recombinant rat TrxR): some activity to inhibit mammalian TrxR |
